Assay [1] has as its system HL-60. The assay can be described thus: Antiproliferative activity against human HL60 cells assessed as reduction in cell viability after 48 hrs by MTT assay. Format: functional, cell-based. The following applies: HL-60, 48 h.
Assay [2] has as its system T-24. The experiment in a line: Induction of apoptosis in human T24 cells assessed as increase in PARP cleavage at 11 to 22 uM by Western blot analysis. In kind it is functional, cell-based.
The subject of assay [3] is T-24. The experiment in a line: Antiproliferative activity against human T24 cells assessed as reduction in cell viability after 48 hrs by MTT assay. The settings on record: T-24, 48 h. In kind it is functional, cell-based.
The subject of assay [4] is HL-60. The assay can be described thus: Potency index, ratio of aphidicolin IC50 to compound IC50 for antiproliferative activity against human HL60 cells. In kind it is functional.
For assay [5], the system named is HL-60. The assay can be described thus: Induction of DNA damage in human HL60 cells assessed as increase in gammaH2AX expression at 11 to 22 uM by Western blot analysis. Format: functional, cell-based.
The subject of assay [6] is T-24. The experiment in a line: Induction of DNA damage in human T24 cells assessed as increase in gammaH2AX expression at 11 to 22 uM by Western blot analysis. Format: functional, cell-based.
Assay [7] relates to HL-60. The experiment in a line: Induction of apoptosis in human HL60 cells assessed as increase in PARP cleavage at 11 to 22 uM by Western blot analysis. Format: functional, cell-based.

SMILES strings stand for the structures. The source made the active and inactive calls. The calls are words filed in the database; no cut-off is given here.

As to `C[C@@]1(CO)[C@H](O)CC[C@@]2(C)[C@H]1CC[C@H]1C[C@@H]3C[C@@]12CC[C@]3(O)CO` [APHIDICOLIN], in assay [1], the concentration for half-maximal inhibition (IC50) was 24.4 µM.

Take `C[C@@]1(CO)[C@H](O)CC[C@@]2(C)[C@H]1C(=O)C[C@H]1C[C@@H]3C[C@@]12CC[C@]3(O)CO`: the outcome in assay [2], in assay [5], in assay [6] and in assay [7] was Active. In addition, the IC50 in assay [3] came out at 2.5 µM; in assay [1] it was 6.1 µM. The “Ratio IC50” value in assay [4] is 4.

The values above are taken from ChEMBL document CHEMBL4334475, “Aphidicolin Chemistry of the Deep-Sea-Derived Fungus Botryotinia fuckeliana MCCC 3A00494” (J Nat Prod, 2019).
